Measurements from ChEMBL document CHEMBL1201862, “PubChem BioAssay data set” (2004).
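Tested at 5 concentrations; 48 h exposure; 96-well plates; endpoints linearly interpolated, else capped at highest concentration. GI50 = concentration required for 50% inhibition of growth.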 The source made the active and inactive calls. Rule as the data show it: active = GI50 up to about 1.1 µM and inactive = higher.

Key:
Assay in all cases: growth of human tumour cells (NCI), 48 h
[1] = system: 786-0
[2] = system: A498
[3] = system: A549
[4] = system: ACHN
[5] = system: BT-549
[6] = system: CAKI-1
[7] = system: CCRF-CEM
[8] = system: COLO 205
[9] = system: DU-145
[10] = system: EKVX
[11] = system: HCC 2998
[12] = system: HCT-116
[13] = system: HCT-15
[14] = system: HL-60
[15] = system: HOP-62
[16] = system: HOP-92
[17] = system: HT-29
[18] = system: Hs-578T
[19] = system: IGROV-1
[20] = system: K562
[21] = system: KM12
[22] = system: LOX IMVI
[23] = system: M14
[24] = system: MCF7
[25] = system: MDA-MB-231
[26] = system: MDA-MB-435
[27] = system: MDA-N
[28] = system: MOLT-4
[29] = system: NCI-H226
[30] = system: NCI-H23
[31] = system: NCI-H460
[32] = system: NCI-H522
[33] = system: NCI/ADR-RES
[34] = system: OVCAR-3
[35] = system: OVCAR-4
[36] = system: OVCAR-5
[37] = system: OVCAR-8
[38] = system: PC-3
[39] = system: RPMI-8226
[40] = system: RXF 393
[41] = system: SF-268
[42] = system: SF-295
[43] = system: SF-539
[44] = system: SK-MEL-28
[45] = system: SK-MEL-2
[46] = system: SK-MEL-5
[47] = system: SN12C
[48] = system: SNB-19
[49] = system: SR
[50] = system: SW-620
[51] = system: T47D
[52] = system: TK-10
[53] = system: U-251
[54] = system: UACC-257
[55] = system: UACC-62
[56] = system: UO-31
[57] = system: Malme-3M
[58] = system: SK-OV-3
[59] = system: SNB-75

With CCN(CC)C(=S)Oc1cc2oc(=O)cc(C)c2cc1Cl the GI50 [1] was > 100 µM (inactive), the GI50 [2] was > 100 µM (inactive) and the GI50 [3] was > 100 µM (inactive). The GI50 [4] was > 100 µM (inactive), the GI50 [5] was > 100 µM (inactive) and the GI50 [6] was > 100 µM (inactive). The GI50 [7] was > 100 µM (inactive), the GI50 [8] was > 100 µM (inactive) and the GI50 [9] was > 100 µM (inactive). For the same compound, the GI50 [10] was > 100 µM (inactive), the GI50 [11] was 52.7 µM (inactive) and the GI50 [12] was > 100 µM (inactive). The GI50 [13] was over 100 µM, the GI50 [14] was > 100 µM (inactive) and the GI50 [15] was 54 µM (inactive). For the same compound, the GI50 [16] was 56 µM (inactive), the GI50 [17] was > 100 µM (inactive) and the GI50 [18] was 57.7 µM (inactive). For the same compound, the GI50 [19] was > 100 µM (inactive), the GI50 [20] was > 100 µM (inactive) and the GI50 [21] was > 100 µM (inactive). The GI50 [22] was 68.7 µM (inactive), the GI50 [23] was > 100 µM (inactive) and the GI50 [24] was 23.9 µM (inactive). For the same compound, the GI50 [25] was > 100 µM (inactive), the GI50 [26] was > 100 µM (inactive) and the GI50 [27] was > 100 µM (inactive). For the same compound, the GI50 [28] was > 100 µM (inactive), the GI50 [29] was > 100 µM (inactive) and the GI50 [30] was > 100 µM (inactive). For the same compound, the GI50 [31] was > 100 µM (inactive), the GI50 [32] was 80.4 µM (inactive) and the GI50 [33] was > 100 µM (inactive). For the same compound, the GI50 [34] was > 100 µM (inactive), the GI50 [35] was > 100 µM (inactive) and the GI50 [36] was > 100 µM (inactive). For the same compound, the GI50 [37] was > 100 µM (inactive), the GI50 [38] was > 100 µM (inactive) and the GI50 [39] was > 100 µM (inactive). The GI50 [40] was 25.5 µM (inactive), the GI50 [41] was 36.1 µM (inactive) and the GI50 [42] was 66.7 µM (inactive). The GI50 [43] was > 100 µM (inactive), the GI50 [44] was > 100 µM (inactive) and the GI50 [45] was 8.51 µM (inactive). The GI50 [46] was > 100 µM (inactive), the GI50 [47] was > 100 µM (inactive) and the GI50 [48] was 66.5 µM (inactive). For the same compound, the GI50 [49] was > 100 µM (inactive), the GI50 [50] was > 100 µM (inactive) and the GI50 [51] was 54 µM (inactive). The GI50 [52] was > 100 µM (inactive), the GI50 [53] was 42.2 µM (inactive) and the GI50 [54] was > 100 µM (inactive). The GI50 [55] was 26.9 µM (inactive) and the GI50 [56] was > 100 µM (inactive).
With O=C(Nc1ccccc1)n1[nH]c(=O)n(-c2ccccc2)c1=O the GI50 [1] was > 100 µM (inactive), the GI50 [2] was > 100 µM (inactive) and the GI50 [3] was > 100 µM (inactive). For the same compound, the GI50 [4] was > 100 µM (inactive), the GI50 [5] was > 100 µM (inactive) and the GI50 [6] was > 100 µM (inactive). The GI50 [7] was > 100 µM (inactive), the GI50 [8] was > 100 µM (inactive) and the GI50 [9] was > 100 µM (inactive). For the same compound, the GI50 [11] was > 100 µM (inactive), the GI50 [12] was > 100 µM (inactive) and the GI50 [13] was over 100 µM. For the same compound, the GI50 [14] was > 100 µM (inactive), the GI50 [16] was > 100 µM (inactive) and the GI50 [17] was > 100 µM (inactive). For the same compound, the GI50 [18] was > 100 µM (inactive), the GI50 [20] was > 100 µM (inactive) and the GI50 [21] was > 100 µM (inactive). The GI50 [22] was > 100 µM (inactive), the GI50 [24] was > 100 µM (inactive) and the GI50 [25] was > 100 µM (inactive). For the same compound, the GI50 [26] was > 100 µM (inactive), the GI50 [27] was > 100 µM (inactive) and the GI50 [57] was > 100 µM (inactive). The GI50 [29] was > 100 µM (inactive), the GI50 [30] was > 100 µM (inactive) and the GI50 [31] was > 100 µM (inactive). For the same compound, the GI50 [32] was > 100 µM (inactive), the GI50 [33] was > 100 µM (inactive) and the GI50 [35] was > 100 µM (inactive). For the same compound, the GI50 [37] was > 100 µM (inactive), the GI50 [38] was > 100 µM (inactive) and the GI50 [39] was > 100 µM (inactive). For the same compound, the GI50 [41] was > 100 µM (inactive), the GI50 [42] was > 100 µM (inactive) and the GI50 [43] was > 100 µM (inactive). The GI50 [44] was > 100 µM (inactive), the GI50 [45] was > 100 µM (inactive) and the GI50 [46] was > 100 µM (inactive). The GI50 [58] was > 100 µM (inactive), the GI50 [47] was > 100 µM (inactive) and the GI50 [48] was > 100 µM (inactive). The GI50 [59] was > 100 µM (inactive), the GI50 [49] was > 100 µM (inactive) and the GI50 [50] was > 100 µM (inactive). The GI50 [51] was > 100 µM (inactive), the GI50 [52] was > 100 µM (inactive) and the GI50 [53] was > 100 µM (inactive). For the same compound, the GI50 [54] was > 100 µM (inactive), the GI50 [55] was > 100 µM (inactive) and the GI50 [56] was > 100 µM (inactive).
